# Test results taken from US6455555B1, “Anti-HIV infection agents and method for treating HIV infection” (Kabushiki Kaisha Hayashibara Seibutsu Kagaku Kenkyujo, priority 2001, dated 2002).
# “Also recorded” adds a separate entry of the source. Read-outs that look alike come from different tables or passages of the source.
# Columns and labels:
# HIV (HTLV-IIIB) = assay: microbe, parasite or virus in culture; type: cell-based; settings: for suppression of HIV replication (in words): at the tested concentrations (20-500 μM)
# Protocol: To examine the effect on HIV infected cell, MT-4 cells (number of cells at the start of culture 1×10^4/well), that underwent anti-HIV assay, were infected with an HIV (HTLV-IIIB, 200 CCID50/well), cultured at 37° C. for 4 days, and determined for the inhibitory effect on HIV replication, according to the method by Pauels, R. et al., in J. Virol. Methods, 16, 171-185 (1987). Suramin was used as a control.
# [1] = tested on: patient suffering from ARC (HIV infection); assay: Clinical Experiment 1: formulation 1 tablets with active ingredient A given to one ARC patient; type: in vivo, human
# Protocol: (§1) The clinical experiments using the agent for anti-HIV infection of the present invention are explained in the following. The clinical experiments described below were conducted in Thailand without informing the patients of the compound names, chemical structures, etc. of the photosensitizing dyes used as the active ingredient.
# The agent for anti-HIV infection of the present invention was administered to a patient suffering from ARC. They had been diagnosed with HIV infection five years before and received administration of AZT/ddI/RTV for 14 months.
# His bronchial asthma, a symptom of ARC, was also cured.
# [2] = tested on: patients suffering from ARC or AIDS (HIV infection); assay: Clinical Experiment 2: formulation 1 tablets with active ingredient A given to seven patients with ARC or AIDS; type: in vivo, human
# Protocol: as §1
# Seven patients suffering from ARC or AIDS were given the agent for anti-HIV infection of the present invention of formulation 1 containing the active ingredient A. Their medical history before treatment was as follows:
# Along therewith, their appetite increased, rash, one of the symptoms of ARC, decreased, hemorrhoid was cured, and insomnia was ameliorated.
# [3] = cited from earlier work
# [4] = 20 μM, MT-4 cells, HTLV-IIIB 200 CCID50/well, 4 days at 37° C.
# [5] = 100 μM, MT-4 cells, HTLV-IIIB 200 CCID50/well, 4 days at 37° C.
# [6] = 500 μM, MT-4 cells, HTLV-IIIB 200 CCID50/well, 4 days at 37° C.
# [7] = after a further 16 weeks, daily dose 1000 μg, following 8 weeks at 500 μg
# [8] = 8 weeks, 500 μg/day, one patient per line
smiles,measurement,setting,value
CCN1C=CC(=CC=C(C=Cc2cc[n+](CC)c3ccccc23)c2cc[n+](CC)c3ccccc23)c2ccccc21.[I-].[I-] [Active ingredient A],Inhibition (%) of HIV replication,HIV (HTLV-IIIB); [4],1%
same,Inhibition (%) of HIV replication,HIV (HTLV-IIIB); [5],2%
same,Inhibition (%) of HIV replication,HIV (HTLV-IIIB); [6],1%
same,suppression of HIV replication (in words),HIV (HTLV-IIIB); listed as active ingredients A,no anti-virus activity to suppress reproduction of HIV; also recorded: did not suppress the replication of HIV
same,other improvement (in words),"[1]; after 8 weeks, daily dose 500 μg",increased appetite and increased pectoral muscle
same,body weight,"[1]; after 8 weeks, daily dose 500 μg, 55.6 kg before administration",56.9 kg
same,CD4 count,"[1]; after 8 weeks, daily dose 500 μg, 121/mm^3 before administration, person",181 /mm^3
same,"bronchial asthma, a symptom of ARC","[1]; after a further 16 weeks, daily dose 1000 μg",cured
same,CD4 count,[1]; [7],192 /mm^3
same,body weight,[1]; [7],57.1 kg
same,Improvement (Symptoms of ARC etc.),[2]; [8],Increased appetite; also recorded: Amelioration of insomnia; also recorded: Cure of hemorrhoids; also recorded: Decrease of rash
same,Side effects,[2]; [8],None
same,overall clinical effect (in words),[2]; HIV-infected patients,most of the patients showed an increase in the CD4 count and in the body weight
same,side effects such as toxic state,[3]; oral administration at 4 g/kg,does not cause any side effects
CCCCCCCN1C(C)=CSC1=CC=C(C=Cc1scc(C)[n+]1CCCCCCC)c1scc(C)[n+]1CCCCCCC.[I-].[I-] [Active ingredient B],Inhibition (%) of HIV replication,HIV (HTLV-IIIB); [4],2%
same,Inhibition (%) of HIV replication,HIV (HTLV-IIIB); [5],1%
same,Inhibition (%) of HIV replication,HIV (HTLV-IIIB); [6],2%
same,suppression of HIV replication (in words),HIV (HTLV-IIIB),no anti-virus activity to suppress reproduction of HIV; also recorded: did not suppress the replication of HIV
same,LD50,[3]; intraperitoneal administration,54 mg/kg
same,LD50,[3]; oral administration,1500 mg/kg
"Cc1ccc(C(=O)Nc2ccc(S(=O)(=O)O)c3cc(S(=O)(=O)O)cc(S(=O)(=O)O)c23)cc1NC(=O)c1cccc(NC(=O)Nc2cccc(C(=O)Nc3cc(C(=O)Nc4ccc(S(=O)(=O)O)c5cc(S(=O)(=O)O)cc(S(=O)(=O)O)c45)ccc3C)c2)c1 [Suramin, reference compound]",inhibition at 0.8 µM,"HIV (HTLV-IIIB); Human immunodeficiency virus 1, MT4, 96 h, 0.8 μM, MT-4 cells, HTLV-IIIB 200 CCID50/well, 4 days at 37° C., read-out: Inhibition (%) of HIV replication",2%
same,inhibition at 4 µM,"HIV (HTLV-IIIB); Human immunodeficiency virus 1, MT4, 96 h, 4 μM, MT-4 cells, HTLV-IIIB 200 CCID50/well, 4 days at 37° C., read-out: Inhibition (%) of HIV replication",10%
same,inhibition at 20 µM,"HIV (HTLV-IIIB); Human immunodeficiency virus 1, MT4, 96 h, 20 μM, MT-4 cells, HTLV-IIIB 200 CCID50/well, 4 days at 37° C., read-out: Inhibition (%) of HIV replication",100%
same,inhibition at 100 µM,"HIV (HTLV-IIIB); Human immunodeficiency virus 1, MT4, 96 h, 100 μM, MT-4 cells, HTLV-IIIB 200 CCID50/well, 4 days at 37° C., read-out: Inhibition (%) of HIV replication",100%
